Measurements: patent publication US8871719B2, “Modified MELK peptides and vaccines containing the same” (OncoTherapy Science, Inc., priority 2010, dated 2014)
Entries after “also recorded” stand apart in the source; their conditions may differ.

Experiments:
[1] = test system: peptide-pulsed A24LCL cells; assay: In vitro CTL induction, IFN-gamma ELISPOT assay; format: cell-based, human; conditions: for Immunogenicity compared to MELK-A24-9-87_WT: CTL induction from donors B and C; for IFN-gamma production of CTLs (ELISPOT): target cells pulsed with cognate peptide vs not pulsed; for CTL inducibility / CTL activity: in vitro stimulation of T-cells by peptide-loaded DCs
Description: Monocyte-derived dendritic cells (DCs) were used as antigen-presenting cells (APCs) to induce cytotoxic T lymphocyte (CTL) responses against peptides presented on HLA. DCs were generated in vitro as described elsewhere (Nakahara S et al., Cancer Res 2003 Jul. 15, 63(14): 4112-8). Specifically, peripheral blood mononuclear cells (PBMCs) isolated from three healthy donors termed donors A, B and C (HLA-A*2402 positive) by Ficoll-Plaque (Pharmacia) solution were separated by adherence to a plastic tissue culture dish (Becton Dickinson) so as to enrich them as the monocyte fraction. The monocyte-enriched population was cultured in the presence of 1,000 U/ml of granulocyte-macrophage colony-stimulating factor (GM-CSF) (R&D System) and 1,000 U/ml of interleukin (IL)-4 (R&D System) in AIM-V Medium (Invitrogen) containing 2% heat-inactivated autologous serum (AS). After 7 days of culture, the cytokine-induced DCs were pulsed with 20 micro-g/ml of each of the synthesized peptides in the presence of 3 micro-g/ml of beta2-microglobulin for 3 hrs at 37 degrees C. in AIM-V Medium. The generated cells appeared to express DC-associated molecules, such as CD80, CD83, CD86 and HLA class II, on their cell surfaces (data not shown). These peptide-pulsed DCs were then inactivated by X-irradiation (20 Gy) and mixed at a 1:20 ratio with autologous CD8+ T cells, obtained by positive selection with CD8 Positive Isolation Kit (Dynal). These cultures were set up in 48-well plates (Corning); each well contained 1.5×10^4 peptide-pulsed DCs, 3×10^5 CD8+ T cells and 10 ng/ml of IL-7 (R&D System) in 0.5 ml of AIM-V/2% AS medium. 3 days later, these cultures were supplemented with IL-2 (CHIRON) to a final concentration of 20 IU/ml. On days 7 and 14, the T cells were further stimulated with the autologous peptide-pulsed DCs. The DCs were prepared each time by the same way described above. CTLs were tested against peptide-pulsed A24LCL cells after the 3rd round of peptide stimulation on day 21 (Tanaka H et al., Br J Cancer 2001 Jan. 5, 84(1): 94-9; Umano Y et al., Br J Cancer 2001 Apr. 20, 84(8): 1052-7; Uchida N et al., Clin Cancer Res 2004 Dec. 15, 10(24): 8577-86; Suda T et al., Cancer Sci 2006 May, 97(5): 411-9; Watanabe T et al., Cancer Sci 2005 August, 96(8): 498-506).
(§1) Specifically, peptide-pulsed A24LCL (1×10^4/well) and tumor cell lines (5×10^4/well) were prepared as stimulator cells. Cultured cells in 48 wells, CTL lines and clones were used as responder cells. IFN-gamma ELISPOT assay and IFN-gamma ELISA assay were performed under manufacture procedure.

[2] = test system: peptide-pulsed A24LCL cells; assay: CTL lines, IFN-gamma ELISA assay; format: cell-based, human
Protocol: CTLs were expanded in culture using the method similar to the one described by Riddell et al. (Walter E A et al., N Engl J Med 1995 Oct. 19, 333(16): 1038-44; Riddell S R et al., Nat Med 1996 Feb. 2(2): 216-23). A total of 5×10^4 CTLs were suspended in 25 ml of AIM-V/5% AS medium with 2 kinds of human B-lymphoblastoid cell lines, inactivated by MMC, in the presence of 40 ng/ml of anti-CD3 monoclonal antibody (Pharmingen). One day after initiating the cultures, 120 IU/ml of IL-2 were added to the cultures. The cultures were fed with fresh AIM-V/5% AS medium containing 30 IU/ml of IL-2 on days 5, 8 and 11 (Tanaka H et al., Br J Cancer 2001 Jan. 5, 84(1): 94-9; Umano Y et al., Br J Cancer 2001 Apr. 20, 84(8): 1052-7; Uchida N et al., Clin Cancer Res 2004 Dec. 15, 10(24): 8577-86; Suda T et al., Cancer Sci 2006 May, 97(5): 411-9; Watanabe T et al., Cancer Sci 2005 August, 96(8): 498-506).
as §1

[3] = test system: peptide-pulsed A24LCL cells; assay: CTL clones, IFN-gamma ELISA assay; format: cell-based, human; conditions: for IFN-gamma production of CTL clones (ELISA): donor B
Protocol: The dilutions were made to have 0.3, 1, and 3 CTLs/well in 96 round-bottomed micro titer plate (Nalge Nunc International). CTLs were cultured with 1×10^4 cells/well of 2 kinds of human B-lymphoblastoid cell lines, 30 ng/ml of anti-CD3 antibody, and 125 U/ml of IL-2 in a total of […] of AIM-V Medium containing 5% AS. 50 micro-1/well of IL-2 were added to the medium 10 days later so to reach a final concentration of 125 U/ml IL-2. CTL activity was tested on the 14th day, and CTL clones were expanded using the same method as described above (Uchida N et al., Clin Cancer Res 2004 Dec. 15, 10(24): 8577-86; Suda T et al., Cancer Sci 2006 May, 97(5): 411-9; Watanabe T et al., Cancer Sci 2005 August, 96(8): 498-506).
as §1

[4] = test system: tumor cell lines MDA-MB-4355 (MELK+, A24+) and KLM-1 (MELK+, A24+); assay: Specific CTL activity against tumor cell lines expressing MELK and HLA-A*2402; format: cell-based, human; conditions: for IFN-gamma production / CTL activity of CTL clone against KLM-1: KLM-1 (MELK+, A24+) compared with KP-1N
Protocol: (§2) TISI, human leukocyte antigen (HLA)-A*2402 positive B-lymphoblastoid cell line, was purchased from the IHWG Cell and Gene Bank (Seattle, Wash.). COS7, MDA-MB-435S and T47D were purchased from ATCC. KLM-1 and KP-1N were purchased from RIKEN cell bank and JCRB cell bank, respectively.
as §1

[5] = test system: T47D (MELK+, A24−) and KP-1N (MELK+, A24−); assay: Specific CTL activity against tumor cell lines expressing MELK but not HLA-A*2402; format: cell-based, human; conditions: T47D and KP-1N (MELK+, A24−)
Protocol: as §2, §1

[6] = test system: COS7 cells transfected with MELK and HLA-A*2402; assay: Specific CTL activity against transfected COS7 cells; format: cell-based
Protocol: as §1
The cDNA encoding an open reading frame of target gene or HLA-A*2402 was amplified by PCR. The PCR-amplified products were cloned into pCAGGS vector. The plasmids were transfected into COST, which is the target genes and HLA-A24 negative cell line, using lipofectamine 2000 (Invitrogen) according to the manufacturer's recommended procedures. After 2 days from transfection, the transfected cells were harvested with versene (Invitrogen) and used as stimulator cells (5×10^4 cells/well) for CTL activity assay.

[7] = donor B, target cells pulsed with MELK-A24-9-87_WT vs irrelevant HIV peptide
[8] = target cells pulsed with MELK-A24-9-87_WT vs irrelevant HIV peptide
[9] = donor A, target cells pulsed with cognate peptide vs without peptide pulse
[10] = donor C, target cells pulsed with MELK-A24-9-87_WT vs irrelevant HIV peptide

| Sequence | Immunogenicity compared to MELK-A24-9-87_WT [1] | IFN-gamma production of CTLs (ELISPOT) ([1]; donor B) | CTL inducibility / CTL activity [1] | IFN-gamma production of CTL lines (ELISA) [2, 7] | IFN-gamma production of CTL clones (ELISA) [3, 8] | IFN-gamma production of CTL lines (ELISA) [2, 9] | other results |
| --- | --- | --- | --- | --- | --- | --- | --- |
| EYMPGGELF [MELK-A24-9-87_3M] | superior immunogenicity | potent IFN-gamma production; also recorded: potential IFN-gamma productive ability | significant and specific CTL activity; also recorded: CTLs were successfully established | potent IFN-gamma production | potent IFN-gamma production |  | CTL inducibility / CTL activity ([1]; listed as 41): particularly strong CTL inducibility |
| VYKRLVEDIL [SEQ ID NO: 23] |  |  | significant and specific CTL activity |  |  | potent IFN-gamma production | IFN-gamma production of CTLs (ELISPOT) ([1]; donor A, listed as MELK-A24-10-637): potent IFN-gamma production; also recorded: potential IFN-gamma productive ability |
| DYIISQDRL [SEQ ID NO: 2] |  |  |  |  |  |  | IFN-gamma production of CTLs (ELISPOT) ([1]; donor A, listed as MELK-A24-9-96): typical negative data; also recorded: specific IFN-gamma production was not shown |
| TANKIFMVL [SEQ ID NO: 21] |  |  |  |  |  |  | IFN-gamma production of CTLs (ELISPOT) ([1]; donor A, listed as MELK-A24-9-78): potent IFN-gamma production; also recorded: potential IFN-gamma productive ability |
| LYVLMCGFL [SEQ ID NO: 1] |  |  |  |  |  | potent IFN-gamma production | IFN-gamma production of CTLs (ELISPOT) ([1]; donor A, listed as MELK-A24-9-199): potent IFN-gamma production; also recorded: potential IFN-gamma productive ability; IFN-gamma production of CTL clone (ELISA) ([3]; donor A, target cells pulsed with cognate peptide vs not pulsed, listed as MELK-A24-9-199): potent IFN-gamma production; also recorded: had the ability to recognize the peptide-pulsed target cells; IFN-gamma production / CTL activity of CTL clone against KLM-1 [4]: no IFN-gamma production |
| KYCPGGELF [MELK-A24-9-87_1K] | superior immunogenicity | potent IFN-gamma production; also recorded: potential IFN-gamma productive ability | significant and specific CTL activity; also recorded: CTLs were successfully established | potent IFN-gamma production | potent IFN-gamma production |  | CTL inducibility / CTL activity ([1]; listed as 35): particularly strong CTL inducibility |
| EYCPGGNLF [MELK-A24-9-87_7N] | superior immunogenicity | potent IFN-gamma production; also recorded: potential IFN-gamma productive ability | significant and specific CTL activity; also recorded: CTLs were successfully established | potent IFN-gamma production | potent IFN-gamma production |  | IFN-gamma production of CTLs (ELISPOT) ([1]; donor C): potent IFN-gamma production; also recorded: potential IFN-gamma productive ability; CTL inducibility / CTL activity ([1]; listed as 44): particularly strong CTL inducibility; IFN-gamma production of CTL lines (ELISA) [2, 10]: peptide specific IFN-gamma production; also recorded: IFN-gamma production was detected; IFN-gamma production of CTL clone (ELISA) [3, 10]: potent IFN-gamma production; IFN-gamma production / CTL activity of CTL clone against KLM-1 [4]: specific CTL activity; CTL activity of CTL line against tumor cell lines ([4]; MDA-MB-4355 and KLM-1 (MELK+, A24+)): potent CTL activity; also recorded: specific CTL activity; CTL activity of CTL line against tumor cell lines [5]: without showing CTL activity |
| EYCPGGELF [MELK-A24-9-87_WT] |  | no specific IFN-gamma production was detected; also recorded: peptide specific IFN-gamma production was not detected | significant and specific CTL activity |  |  | potent IFN-gamma production | IFN-gamma production of CTLs (ELISPOT) ([1]; donor A): potent IFN-gamma production; also recorded: potential IFN-gamma productive ability; IFN-gamma production of CTL lines (ELISA) [2, 10]: no IFN-gamma production; also recorded: CTL line was not established; IFN-gamma production of CTL clone (ELISA) ([3]; donor A, target cells pulsed with cognate peptide vs not pulsed): potent IFN-gamma production; Specific CTL activity of CTL clone against controls ([6]; COS7 cells expressing either HLA-A*2402 or MELK): no significant specific CTL activity; Specific CTL activity of CTL clone ([6]; COS7 cells transfected with both MELK and HLA-A*2402): potent CTL activity; also recorded: specific CTL activity |
